In patent US10201510B2, “Compositions and methods for treatment of neurological symptoms associated with alcohol-withdrawal and for convulsive seizure” (Oregon Health & Science University, priority 2005, dated 2019):

What was measured:
[1] = biological target: T1, smooth muscle voltage-gated, L-type (Cav1.2 or α1C subunit) Ca^2+ channels (Mus musculus, UniProt Q01815); assay: KCl-induced contraction in isolated arteries; conditions: FIG. 5 / FIG. 6 (25 μM)
T1 construct: KCl-induced contraction in isolated arteries; from tissue; host or cells: mouse mesenteric arteries
Method: Contractions obtained after 30 min. incubation with the test compounds (left portion of graph), and after a 60-min. wash-out (right portion of graph).
(§1) To identify compounds with enhanced L-type Ca^2+ channel blocker activity, several compounds were either purchased or synthesized, and then tested for their ability to inhibit: (1) KCl-induced contraction in isolated arteries; (2) KCl-induced Ca^2+ signaling in fura-2 loaded arteries; and (3) KCl-induced Ca^2+ signaling in fura-2 loaded PC12 cells, all using art-recognized methods established in the applicants' laboratories (Roullet, 1993, 1994, 1995, 1997; De Lima, 1999). Arteries express smooth muscle voltage-gated, L-type (Cav1.2 or α1C subunit) Ca^2+ channels, whereas PC12 cells constitutively express the neuronal voltage-gated, L-type (Cav1.3) α1D subunit (Ertel, 2000).

[2] = biological target: T2, neuronal voltage-gated, L-type (Cav1.3) α1D subunit Ca^2+ channel (Rattus norvegicus, UniProt P27732); assay: KCl-induced Ca^2+ signaling in fura-2 loaded PC12 cells; format: cell-based; conditions: for activity on neuronal L-type Ca^2+ channels compared with all-trans farnesol: non-NGF PC12 cells, fura-2, FIG. 1 / FIG. 3
T2 construct: KCl-induced intracellular Ca^2+ signaling in non-NGF treated PC12 cells loaded with fura-2; endogenous in cells; host or cells: PC12 cells (non-NGF treated)
Excerpt: According to particular aspects of the present invention, the alcohol group is essential for activity. Additionally, the activity of farnesol metabolites on neuronal voltage-gated L-type Ca^2+ channels was investigated. […] The Ca^2+ channel activity is expressed as % inhibition of KCl-induced intracellular Ca^2+ signaling in non-NGF differentiated PC12 cells loaded with fura-2 (see Materials and Methods under Example 2). The assayed molecules are: FPP—farnesyl pyrophosphate; FOH—all-trans farnesol; FCHO—all-trans farnesal; and FCOOH—all-trans farnesoic acid (prepared by Dr. McDougal).
as §1
Ca^2+ channel activity is expressed as % inhibition of KCl-induced intracellular Ca^2+ signaling in non-NGF treated PC12 cells loaded with fura-2.

ADH = assay: Metabolism / substrate recognition by ADH; format: in vitro ADME
[3] = biological target: T3, voltage-gated L-type Ca^2+ channels (Homo sapiens, UniProt Q13936); conditions: cited from earlier work
T3 construct: host or cells: arteries / vascular smooth muscle cells

microsomal FolDH = assay: Recognition by microsomal FolDH; format: in vitro ADME
[4] = test system: withdrawal seizures in alcohol-dependent mice; assay: Predicted anti-seizure activity; format: in vivo, mouse; design: key: la = long-acting; The ++ farnesol activity was arbitrary; conditions: duration flag in brackets

T1 sequence (Q01815 whole entry): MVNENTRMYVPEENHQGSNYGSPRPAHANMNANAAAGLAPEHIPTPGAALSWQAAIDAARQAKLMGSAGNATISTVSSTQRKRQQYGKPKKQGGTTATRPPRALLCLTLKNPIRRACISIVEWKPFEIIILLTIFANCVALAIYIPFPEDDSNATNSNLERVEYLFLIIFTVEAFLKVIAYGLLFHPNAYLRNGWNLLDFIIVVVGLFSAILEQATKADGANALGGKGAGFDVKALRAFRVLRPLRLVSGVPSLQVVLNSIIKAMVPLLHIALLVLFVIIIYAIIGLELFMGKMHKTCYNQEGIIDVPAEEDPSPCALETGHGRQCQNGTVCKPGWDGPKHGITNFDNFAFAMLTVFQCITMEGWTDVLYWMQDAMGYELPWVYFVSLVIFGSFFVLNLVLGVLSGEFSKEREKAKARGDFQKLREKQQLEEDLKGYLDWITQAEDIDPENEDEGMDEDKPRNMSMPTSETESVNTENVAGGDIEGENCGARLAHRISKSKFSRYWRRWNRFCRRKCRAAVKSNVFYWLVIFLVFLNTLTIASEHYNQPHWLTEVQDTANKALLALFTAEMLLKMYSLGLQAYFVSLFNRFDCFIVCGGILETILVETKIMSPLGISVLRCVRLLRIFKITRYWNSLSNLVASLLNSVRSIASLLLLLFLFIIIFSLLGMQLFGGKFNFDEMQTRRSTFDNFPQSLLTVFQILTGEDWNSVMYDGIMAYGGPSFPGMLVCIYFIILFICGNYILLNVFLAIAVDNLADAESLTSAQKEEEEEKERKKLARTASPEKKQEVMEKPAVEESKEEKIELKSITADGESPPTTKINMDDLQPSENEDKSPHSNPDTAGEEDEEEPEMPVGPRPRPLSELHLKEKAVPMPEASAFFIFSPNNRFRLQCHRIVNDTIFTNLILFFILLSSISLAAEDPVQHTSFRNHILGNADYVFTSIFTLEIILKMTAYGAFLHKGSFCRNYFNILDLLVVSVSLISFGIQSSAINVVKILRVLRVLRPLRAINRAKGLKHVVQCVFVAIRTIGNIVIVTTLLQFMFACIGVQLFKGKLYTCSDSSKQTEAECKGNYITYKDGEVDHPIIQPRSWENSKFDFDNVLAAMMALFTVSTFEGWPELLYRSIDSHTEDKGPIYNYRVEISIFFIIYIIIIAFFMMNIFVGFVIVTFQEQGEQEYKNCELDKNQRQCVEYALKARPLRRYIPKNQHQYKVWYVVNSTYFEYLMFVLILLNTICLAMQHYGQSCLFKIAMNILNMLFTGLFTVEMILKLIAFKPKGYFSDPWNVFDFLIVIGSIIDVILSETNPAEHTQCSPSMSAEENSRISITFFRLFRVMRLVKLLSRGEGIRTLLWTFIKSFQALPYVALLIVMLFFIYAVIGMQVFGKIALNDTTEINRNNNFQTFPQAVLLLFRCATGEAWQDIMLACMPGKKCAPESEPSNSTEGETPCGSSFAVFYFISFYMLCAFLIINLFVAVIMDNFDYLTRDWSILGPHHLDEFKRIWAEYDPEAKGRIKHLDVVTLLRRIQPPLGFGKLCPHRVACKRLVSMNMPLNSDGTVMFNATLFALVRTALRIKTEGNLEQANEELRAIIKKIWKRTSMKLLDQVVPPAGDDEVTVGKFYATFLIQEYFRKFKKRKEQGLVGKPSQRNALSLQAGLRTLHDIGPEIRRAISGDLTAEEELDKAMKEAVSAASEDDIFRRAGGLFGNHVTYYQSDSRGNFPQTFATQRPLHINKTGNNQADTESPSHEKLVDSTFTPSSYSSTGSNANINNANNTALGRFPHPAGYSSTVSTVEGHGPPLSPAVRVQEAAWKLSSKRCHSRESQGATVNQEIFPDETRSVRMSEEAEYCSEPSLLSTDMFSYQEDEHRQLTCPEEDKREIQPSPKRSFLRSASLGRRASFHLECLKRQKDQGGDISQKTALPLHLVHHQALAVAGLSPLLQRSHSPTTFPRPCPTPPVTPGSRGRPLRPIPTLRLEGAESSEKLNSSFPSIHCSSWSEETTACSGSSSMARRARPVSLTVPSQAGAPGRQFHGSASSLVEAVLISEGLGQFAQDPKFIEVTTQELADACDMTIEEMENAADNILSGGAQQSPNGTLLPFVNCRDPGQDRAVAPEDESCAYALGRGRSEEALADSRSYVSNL
T1 sequence (P54285 whole entry partner): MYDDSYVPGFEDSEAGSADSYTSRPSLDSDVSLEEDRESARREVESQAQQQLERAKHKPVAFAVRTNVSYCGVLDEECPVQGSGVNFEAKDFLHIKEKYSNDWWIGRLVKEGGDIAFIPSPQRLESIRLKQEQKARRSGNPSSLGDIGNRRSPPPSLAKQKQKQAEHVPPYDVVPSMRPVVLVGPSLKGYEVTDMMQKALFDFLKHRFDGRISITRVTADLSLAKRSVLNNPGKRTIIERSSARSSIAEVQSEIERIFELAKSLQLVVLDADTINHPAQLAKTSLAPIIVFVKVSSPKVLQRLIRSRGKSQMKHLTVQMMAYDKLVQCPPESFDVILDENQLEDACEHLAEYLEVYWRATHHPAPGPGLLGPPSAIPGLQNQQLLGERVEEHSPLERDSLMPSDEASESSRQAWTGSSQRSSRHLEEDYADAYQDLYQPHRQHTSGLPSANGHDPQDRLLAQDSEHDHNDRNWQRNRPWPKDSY
T1 sequence (O08532 25-956 partner limits assumed): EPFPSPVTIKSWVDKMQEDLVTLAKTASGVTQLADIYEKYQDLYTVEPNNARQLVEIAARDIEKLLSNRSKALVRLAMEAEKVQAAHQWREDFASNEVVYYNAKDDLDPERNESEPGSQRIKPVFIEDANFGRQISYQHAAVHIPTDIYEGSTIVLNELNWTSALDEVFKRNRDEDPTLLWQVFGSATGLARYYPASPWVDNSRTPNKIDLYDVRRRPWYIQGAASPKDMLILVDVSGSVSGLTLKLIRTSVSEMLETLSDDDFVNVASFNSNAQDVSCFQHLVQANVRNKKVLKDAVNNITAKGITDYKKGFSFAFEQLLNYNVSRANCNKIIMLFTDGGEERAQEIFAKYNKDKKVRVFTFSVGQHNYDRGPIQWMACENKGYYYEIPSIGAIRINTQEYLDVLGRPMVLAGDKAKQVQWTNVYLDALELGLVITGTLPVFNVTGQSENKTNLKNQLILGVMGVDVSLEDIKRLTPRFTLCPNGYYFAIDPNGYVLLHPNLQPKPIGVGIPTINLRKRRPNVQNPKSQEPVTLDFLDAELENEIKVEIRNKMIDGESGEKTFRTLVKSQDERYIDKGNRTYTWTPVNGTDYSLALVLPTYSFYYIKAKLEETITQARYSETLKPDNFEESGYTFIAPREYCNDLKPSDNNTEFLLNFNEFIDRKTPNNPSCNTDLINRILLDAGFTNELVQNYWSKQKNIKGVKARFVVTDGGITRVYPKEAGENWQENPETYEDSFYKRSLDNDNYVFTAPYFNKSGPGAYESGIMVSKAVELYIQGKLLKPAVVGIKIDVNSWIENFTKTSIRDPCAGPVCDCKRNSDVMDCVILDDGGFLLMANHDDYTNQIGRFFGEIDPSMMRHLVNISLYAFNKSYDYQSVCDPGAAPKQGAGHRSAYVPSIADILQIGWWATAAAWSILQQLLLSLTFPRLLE
T1 sequence (O08532 957-1103 partner limits assumed): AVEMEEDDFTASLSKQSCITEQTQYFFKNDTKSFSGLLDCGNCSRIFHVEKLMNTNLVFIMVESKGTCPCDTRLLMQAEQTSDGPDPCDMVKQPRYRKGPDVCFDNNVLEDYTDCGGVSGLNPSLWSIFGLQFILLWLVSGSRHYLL

CC(=O)OCC=C(C)CCC=C(C)CCC=C(C)C [farnesyl acetate]
activity on KCl-induced arterial contraction [1]: did not showed significant activity

CC(C)=CCCC(C)=CCCC(C)=CC=O [FCHO, all-trans farnesal, reference compound]
activity on neuronal L-type Ca^2+ channels compared with all-trans farnesol [2]: significantly less activity than FOH

CC(C)=CCC/C(C)=C/CC/C(C)=C\CO [“Cis” farnesol, (2Z,6E)-3,7,11-trimethyldodeca-2,6,10-trien-1-ol]
activity on neuronal L-type Ca^2+ channels compared with all-trans farnesol [2]: significantly more active | activity on KCl-induced arterial contraction [1]: significantly more active | catalytic efficiency of ADH, lower than toward all-trans farnesol (ADH): approximately 10 fold

CC(C)=CCC/C(C)=C/CO [geraniol, reference compound]
activity on Ca^2+ channels / smooth muscle L-type channels (literature / prior studies) [3]: inactive

CC(C)=CCC/C(C)=C/CC/C(C)=C/C(=O)O [farnesoic acid, all-trans farnesoic acid, reference compound]
activity on neuronal L-type Ca^2+ channels compared with all-trans farnesol [2]: substantially inactive

CC(=O)CCC=C(C)CCC=C(C)CCC=C(C)C [farnesylacetone]
activity on KCl-induced arterial contraction [1]: did not showed significant activity

COCC=C(C)CCC=C(C)CCC=C(C)C [farnesyl methyl ether]
activity on KCl-induced arterial contraction [1]: did not showed significant activity

C=CC(C)(O)CCC=C(C)CCC=C(C)C (mixture of isomers) [Nerolidol, (E)-3,7,11-trimethyldodeca-1,6,10-trien-3-ol]
recognition by microsomal FolDH (microsomal FolDH): not recognized by microsomal FolDH | block of KCl-induced Ca^2+ signaling ([2]; PC12 cells in culture, n=3/group, FIG. 3): ~85% | substrate for ADH (ADH): not a substrate for ADH | Predicted anti-seizure activity: long-acting (la) [4]: la

CC(C)=CCCC(C)=CCCC(C)=CCBr [Farnesyl bromide]
activity on KCl-induced arterial contraction [1]: did not showed significant activity

CC(C)=CCC/C(C)=C/CC/C(C)=C/COP(=O)(O)OP(=O)(O)O [farnesyl-PP, farnesyl pyrophosphate, reference compound]
activity on neuronal L-type Ca^2+ channels compared with all-trans farnesol [2]: substantially inactive

CC(C)=CCC/C(C)=C/CC/C(C)=C/CC/C(C)=C/CO [geranylgeraniol, reference compound]
activity on Ca^2+ channels / smooth muscle L-type channels (literature / prior studies) [3]: inactive

CC(C)=CCC/C(C)=C/CC/C(=C\CO)C(F)(F)F [Trifluorofarnesol, (2E,6E)-,7,11-dimethyl-3-(trifluoromethyl)dodeca-2,6,10-trien-1-ol]
Predicted anti-seizure activity: long-acting (la) [4]: la
